Reference: patent US20140350081A1, “INSECT G-COUPLED RECEPTORS USEFUL AS TARGETS FOR INSECTICIDES AND COMPOUNDS AND REAGENTS IDENTIFIED USING THE SAME” (priority 2011, published 2014)
Structures can show the parent of a compound that is named as a salt. Where two headings read alike, the source gives them in different places.

Target: AaDOP2 (Aedes aegypti, UniProt H6D5H2)
Experiment: HTRF cAMP accumulation concentration response assay (Cisbio Dynamic 2)
Format: cell-based
[1] = in vitro Concentration Response Curve assay, n = 2, relative to control antagonist Amitriptyline, read-out: Avg IC50
[2] = AaDOP2 expressing cells in the presence of dopamine, No Inhibition = <10% inhibition at 3 μM test compound, read-out: IC50 ± S.E.M. (nM), HTRF cAMP assay

Chain of AaDOP2 (H6D5H2 entry or part of it): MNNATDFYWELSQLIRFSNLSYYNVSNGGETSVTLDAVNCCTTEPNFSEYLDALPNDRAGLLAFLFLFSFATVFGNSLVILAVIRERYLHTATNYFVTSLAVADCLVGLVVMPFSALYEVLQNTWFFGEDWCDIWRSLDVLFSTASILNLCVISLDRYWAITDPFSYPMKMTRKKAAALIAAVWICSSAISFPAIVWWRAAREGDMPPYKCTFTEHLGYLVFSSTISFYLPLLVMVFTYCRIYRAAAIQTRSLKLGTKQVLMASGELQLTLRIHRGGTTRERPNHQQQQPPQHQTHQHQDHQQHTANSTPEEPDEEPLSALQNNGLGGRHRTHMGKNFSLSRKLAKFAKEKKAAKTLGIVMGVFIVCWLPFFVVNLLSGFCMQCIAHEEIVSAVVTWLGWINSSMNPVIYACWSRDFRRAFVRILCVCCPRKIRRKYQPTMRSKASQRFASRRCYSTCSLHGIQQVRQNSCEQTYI

Structure (SMILES) | IC50 [1] [nM] | also measured
CCCCC(=O)Nc1ccc(Nc2nc(C)cc(Nc3ccccc3)n2)cc1 [Compound G869-0099, N-(4-((4-methyl-6-(phenylamino)pyrimidin-2-yl)amino)phenyl)pentanamide] | 5950 | 
Cc1cc(Nc2ccccc2)nc(Nc2ccc(NC(=O)C(C)(C)C)cc2)n1 [Compound G869-0100, N-(4-((4-methyl-6-(phenylamino)pyrimidin-2-yl)amino)phenyl)pivalamide] | 2080 | 
Cc1cc(Nc2ccccc2)nc(Nc2ccc(NC(=O)CC(C)C)cc2)n1 [Compound G869-0101, 3-methyl-N-(4-((4-methyl-6-(phenylamino)pyrimidin-2-yl)amino)phenyl)butanamide] | 5500 | 
Cc1cc(Nc2ccccc2)nc(Nc2ccc(NC(=O)C3CCCCC3)cc2)n1 [Compound G869-0105, N-(4-((4-methyl-6-(phenylamino)pyrimidin-2-yl)amino)phenyl)cyclohexanecarboxamide] | 11600 | 
COc1cc(OC)cc(C(=O)Nc2ccc(Nc3nc(C)cc(Nc4ccccc4)n3)cc2)c1 [Compound G869-0121, 3,5-dimethoxy-N-(4-((4-methyl-6-(phenylamino)pyrimidin-2-yl)amino)phenyl)benzamide] | 2220 | 
Cc1cc(Nc2ccccc2)nc(Nc2ccc(NC(=O)c3ccccc3Cl)cc2)n1 [Compound G869-0127, 2-chloro-N-(4-((4-methyl-6-(phenylamino)pyrimidin-2-yl)amino)phenyl)benzamide] | 7510 | 
COc1ccc(Nc2cc(C)nc(Nc3ccc(NC(C)=O)cc3)n2)cc1 [Compound G869-0268, N-(4-((4-((4-methoxyphenyl)amino)-6-methylpyrimidin-2-yl)amino)phenyl)acetamide] | 13200 | 
COc1ccc(Nc2cc(C)nc(Nc3ccc(NC(=O)C(C)(C)C)cc3)n2)cc1 [Compound G869-0273, N-(4-((4-((4-methoxyphenyl)amino)-6-methylpyrimidin-2-yl)amino)phenyl)pivalamide] | 5090 | 
COc1ccc(Nc2cc(C)nc(Nc3ccc(NC(=O)CC(C)(C)C)cc3)n2)cc1 [Compound G869-0275, N-(4-((4-((4-methoxyphenyl)amino)-6-methylpyrimidin-2-yl)amino)phenyl)-3,3-dimethylbutanamide] | 9020 | 
COc1ccc(Nc2cc(C)nc(Nc3ccc(NC(=O)c4c(F)cccc4Cl)cc3)n2)cc1 [Compound G869-0304, 2-chloro-6-fluoro-N-(4-((4-((4-methoxyphenyl)amino)-6-methylpyrimidin-2-yl)amino)phenyl)benzamide] | 7170 | 
Cc1cc(N2CCCC2)nc(Nc2ccc(NC(=O)c3ccccc3Br)cc2)n1 [Compound G869-0472, 2-bromo-N-(4-((4-methyl-6-(pyrrolidin-1-yl)pyrimidin-2-yl)amino)phenyl)benzamide] | 19400 | 
Cc1cc(N2CCCC2)nc(Nc2ccc(NC(=O)Cc3ccccc3)cc2)n1 [Compound G869-0499, N-(4-((4-methyl-6-(pyrrolidin-1-yl)pyrimidin-2-yl)amino)phenyl)-2-phenylacetamide] | 9230 | 
Cc1ccc(Nc2nc(N3CCN(C)CC3)nc3c2cnn3-c2ccccc2)cc1 [Compound G932-0029, 6-(4-methylpiperazin-1-yl)-1-phenyl-N-(p-tolyl)-1H-pyrazolo[3,4-d]pyrimidin-4-amine] | 4550 | 
Cc1ccccc1Nc1nc(N2CCN(C)CC2)nc2c1cnn2-c1ccccc1 [Compound G932-0129, 6-(4-methylpiperazin-1-yl)-1-phenyl-N-(o-tolyl)-1H-pyrazolo[3,4-d]pyrimidin-4-amine] | 3490 | 
OCCN1CCN(c2nc(Nc3ccccc3)c3cnn(-c4ccccc4)c3n2)CC1 [Compound G932-0232, 2-(4-(1-phenyl-4-(phenylamino)-1H-pyrazolo[3,4-d]pyrimidin-6-yl)piperazin-1-yl)ethanol] | 1170 | 
CCN1CCN(c2nc(Nc3ccccc3)c3cnn(-c4ccccc4)c3n2)CC1 [Compound G932-0245, 6-(4-ethylpiperazin-1-yl)-N,1-diphenyl-1H-pyrazolo[3,4-d]pyrimidin-4-amine] | 557 | 
CN1CCN(c2nc(Nc3ccc(F)cc3)c3cnn(-c4ccccc4)c3n2)CC1 [Compound G932-0329, N-(4-fluorophenyl)-6-(4-methylpiperazin-1-yl)-1-phenyl-1H-pyrazolo[3,4-d]pyrimidin-4-amine] | 2500 | 
CCN1CCN(c2nc(Nc3ccc(F)cc3)c3cnn(-c4ccccc4)c3n2)CC1 [Compound G932-0345, 6-(4-ethylpiperazin-1-yl)-N-(4-fluorophenyl)-1-phenyl-1H-pyrazolo[3,4-d]pyrimidin-4-amin] | 4540 | 
CCN(CC)CCNc1nc(Nc2ccc(Cl)cc2)c2cnn(-c3ccccc3)c2n1 [Compound G932-0372, N4-(4-chlorophenyl)-N6-(2-(diethylamino)ethyl)-1-phenyl-1H-pyrazolo[3,4-d]pyrimidine-4,6-diamine] | 5130 | 
CN1CCN(c2nc(Nc3ccc(Cl)cc3)c3cnn(-c4ccccc4)c3n2)CC1 [Compound G932-0379, N-(4-chlorophenyl)-6-(4-methylpiperazin-1-yl)-1-phenyl-1H-pyrazolo[3,4-d]pyrimidin-4-amine] | 3980 | 
COc1ccc(Nc2nc(N3CCN(C)CC3)nc3c2cnn3-c2ccccc2)cc1 [Compound G932-0529, N-(4-methoxyphenyl)-6-(4-methylpiperazin-1-yl)-1-phenyl-1H-pyrazolo[3,4-d]pyrimidin-4-amine] | 6870 | 
CN1CCN(c2nc(Nc3cccc(F)c3)c3cnn(-c4ccccc4)c3n2)CC1 [Compound G932-0671, N-(3-fluorophenyl)-6-(4-methylpiperazin-1-yl)-1-phenyl-1H-pyrazolo[3,4-d]pyrimidin-4-amine] | 585 | 
OCCN1CCN(c2nc(Nc3cccc(F)c3)c3cnn(-c4ccccc4)c3n2)CC1 [Compound G932-0674, 2-(4-(4-((3-fluorophenyl)amino)-1-phenyl-1H-pyrazolo[3,4-d]pyrimidin-6-yl)piperazin-1-yl)ethanol] | 1480 | 
CCN1CCN(c2nc(Nc3cccc(F)c3)c3cnn(-c4ccccc4)c3n2)CC1 [Compound G932-0687, 6-(4-ethylpiperazin-1-yl)-N-(3-fluorophenyl)-1-phenyl-1H-pyrazolo[3,4-d]pyrimidin-4-amine] | 769 | 
CN1CCN(c2nc(Nc3ccc4c(c3)OCO4)c3cnn(-c4ccccc4)c3n2)CC1 [Compound G932-0818, N-(benzo[d][1,3]dioxol-5-yl)-6-(4-methylpiperazin-1-yl)-1-phenyl-1H-pyrazolo[3,4-d]pyrimidin-4-amine] | 1650 | 
Cc1nc2sccn2c(=O)c1CCN1CCC(=C(c2ccccc2)c2ccc(F)cc2)CC1 [Compound R59-022] |  | IC50 [2]: 53 ± 13 nM
O=C(NCC1CCCCN1)c1cc(OCC(F)(F)F)ccc1OCC(F)(F)F (centres unmarked) [Flecainide Acetate, N-(2-Piperidylmethyl)-2,5-bis-(2,2,2-trifluoroethoxy)benzamide acetate salt] | 318 | 
CCOC(=O)N1CCC(=C2c3ccc(Cl)cc3CCc3cccnc32)CC1 [Loratidine] |  | IC50 [2]: 18000 nM
CCc1nn(CCCN2CCN(c3cccc(Cl)c3)CC2)c(=O)n1CCOc1ccccc1 [Nefazodone HCl, 2-[3-[4-(3-chlorophenyl)-1-piperazinyl]propyl]-5-ethyl-2,4-dihydro-4-(2-phenoxyethyl)-3H-1,2,4-triazol-3-one hydrochloride] |  | IC50: 4880 nM
